This is an account of results in patent US20040044079A1, “Methods and compositions for weight control” (The IAMS Company, priority 2002, published 2004).

For experiment [1] the following is noted: incorporated into a high fat diet fed to mice; U.S. Pat. No. 6,054,480; cited from earlier work.
Experiment [2] in a line: Average body condition scores of dogs on treatment diets. Format: in vivo. The conditions noted are these: for Average Body Condition Score: score 1 thin to 5 obese (Table 1); for Average Body Condition Score % Change: Day 0 to Day 84. As for the experimental part: (§1) In phase I of the study, 80 beagle and mongrel dogs were fed a weight gain diet (36% protein, 26% fat by dry weight). The dogs were allowed to eat as much as they wished for 16 weeks. Weekly weight gain and daily food intake were measured for each dog. In phase II, the 20 dogs that were the poorest weight […] eliminated from the study. The 60 remaining dogs were randomly assigned to one of the four treatment groups. The treatment diets were the following: The dogs were given the treatment diets for 12 weeks. During this time the dogs were allowed to eat as much as they wished. Daily food intake and weekly body weight were measured. Body composition measurements were also taken, including fat, lean body mass, bone mineral content (BMC), and bone mineral density (BMD). These measurements help to determine the cause of weight loss-for instance, whether it is due to an increase in satiety and therefore reduced food intake, or an increase in thermogenesis. The measurements also allow a determination of whether weight loss results from a reduction in lean body mass or a loss of fat, or a combination of both. [table]

A short description of experiment [3]: Whole body composition of overweight dogs fed treatment diets for 12 weeks. The settings on record: for Area: absolute data; for Area (relative data) / BMD (relative data) / Lean + BMC (relative data) / Total (relative data) / BMC (relative data) / Fat (relative data) / Lean (relative data): relative change, beginning to end of phase II. Format: in vivo. As for the experimental part: as §1, with “following: Control. Similar to EUKANUBA REDUCED FAT dry dog food, consisting of approximately 19% protein and 10% fat on a dry weight basis, with an additional 3% poultry fat to achieve a total fat content of 13%. Free fatty acid mix. Identical to the control diet, but with 3% free fatty acids in place of the 3% poultry fat. The free fatty acid was technical grade linoleic acid. Ethyl esters of fatty acid mix. Identical to control diet, but with 3% ethyl ester of fatty acid in place of the 3% poultry fat. The ethyl ester used was ethyl oleate. Lotus leaf extract. Identical to the control, but with an additional 0.3% extract of lotus leaf. Lotus leaf extract has been used in China to promote human weight loss. It is purported to help induce a sense of satiety and reduce food consumption.” for “following:”, “both.” for “both. [table]”

Experiment [4] can be described thus: Daily food intake of dogs on treatment diets. Format: in vivo. The settings on record: experimental period of phase II, compared among the four diets, FIGS. 1 and 2. As for the experimental part: as §1, with “both.” for “both. [table]”
The nature of experiment [5]: Weekly body weight / weight loss of dogs on treatment diets. Format: in vivo. The conditions noted are these: for weight loss: phase II, compared with control diet, FIGS. 3 and 4. Here is the method:
as §1, with “both.” for “both. [table]”

Setting [6] is: second Lean column (body share).

Molecules are shown by their SMILES.

As to `CCCCCCCCCCCCCC(=O)O` [myristic acid], in experiment [1], the “effect on body weight” value is reported as “caused weight loss or reduction of weight gain in the mice”.
`CCCCC/C=C\C/C=C\CCCCCCCC(=O)O` [T × 1, linoleic acid]: the “Average Body Condition Score” value in experiment [2] (Day 0) came out at 4.1; in experiment [2] (Day 84) it was 3.3. For the same compound, the “Average Body Condition Score % Change” value in experiment [2] is −19.5%. The “BMC (bone mineral content)” value in experiment [3] (Day 0, absolute data) is 263.95 g; in experiment [3] (Day 84, absolute data), 257.27 g. Besides, the Fat in experiment [3] (Day 0, absolute data) amounted to 5772.09 g; in experiment [3] (Day 0, share of whole body) it was 35.74%; in experiment [3] (Day 84, absolute data) it was 4109.94 g; in experiment [3] (Day 84, share of whole body), 29.22%. Besides, the Lean came to 9840.21 g in experiment [3] (Day 0, absolute data); 62.58% in experiment [3] (Day 0, share of whole body); 9607.27 g in experiment [3] (Day 84, absolute data); 68.94% in experiment [3] (Day 84, share of whole body). Moreover, the “Lean + BMC” value in experiment [3] (Day 0, absolute data) is given as 10104.15 g; in experiment [3] (Day 84, absolute data) it was 9864.54 g. The Total in experiment [3] (Day 0, absolute data) came to 15876.27 g; in experiment [3] (Day 84, absolute data), 13974.49 g. Besides, the BMC in experiment [3] (Day 0, share of whole body) is on record as 1.67%; in experiment [3] (Day 84, share of whole body) it was 1.84%. The Area came to 402.07 cm^2 in experiment [3] (Day 0, start of phase II) and 387.39 cm^2 in experiment [3] (Day 84, end of phase II). In addition, in experiment [3], the “Area (relative data)” value is given as −3.98%. The “BMD (relative data)” value in experiment [3] was found to be 1.15%. Also, in experiment [3], the “Lean + BMC (relative data)” value was −2.38%. Moreover, the “Total (relative data)” value in experiment [3] is given as −11.75%. For the same compound, the “BMC (relative data)” value in experiment [3] (first BMC column) is listed as −3.06%; in experiment [3] (second BMC column (body share)), 10.16%. Further, the entries for the “Fat (relative data)” value in experiment [3] (first Fat column (mass)) and in experiment [3] (second Fat column (body share)) were −28.22% and −18.59%, respectively. Besides, the “Lean (relative data)” value in experiment [3] (first Lean column (mass)) is −2.34%; in experiment [3] (setting [6]), 10.84%. The food intake result in experiment [4] is “ate intermediate amounts, slightly more than the control diet”. Further, the weight loss entry in experiment [5] was “generally greatest”.
Regarding `CCCCCCCC/C=C\CCCCCCCC(=O)OCC` [T × 2, ethyl oleate], the “Average Body Condition Score” value in experiment [2] (Day 0) was determined as 4.0; in experiment [2] (Day 84), 3.7. Moreover, the “Average Body Condition Score % Change” value in experiment [2] is −7.5%. The “BMC (bone mineral content)” value worked out at 253.62 g in experiment [3] (Day 0, absolute data) and 229.74 g in experiment [3] (Day 84, absolute data). Besides, the Fat in experiment [3] (Day 0, absolute data) was 5956.12 g; in experiment [3] (Day 0, share of whole body), 36.77%; in experiment [3] (Day 84, absolute data) it was 4723.12 g; in experiment [3] (Day 84, share of whole body), 31.44%. Besides, the Lean came out at 9667.31 g in experiment [3] (Day 0, absolute data); 61.63% in experiment [3] (Day 0, share of whole body); 9837.15 g in experiment [3] (Day 84, absolute data); 66.99% in experiment [3] (Day 84, share of whole body). The Lean + BMC in experiment [3] (Day 0, absolute data) worked out at 9920 g; in experiment [3] (Day 84, absolute data) it was 10066.89 g. The Total in experiment [3] (Day 0, absolute data) was 15877.02 g; in experiment [3] (Day 84, absolute data), 14790.01 g. Moreover, the BMC in experiment [3] (Day 0, share of whole body) was 1.61%; in experiment [3] (Day 84, share of whole body), 1.57%. The Area in experiment [3] (Day 0, start of phase II) was 395.54 cm^2; in experiment [3] (Day 84, end of phase II), 362.26 cm^2. For the same compound, in experiment [3], the “Area (relative data)” value is recorded as −7.99%. Also, the “BMD (relative data)” value in experiment [3] is −0.58%. In experiment [3], the “Lean + BMC (relative data)” value was −4.69%. The “Total (relative data)” value in experiment [3] is reported as −6.56%. In addition, the “BMC (relative data)” value is −8.58% in experiment [3] (first BMC column) and −2.39% in experiment [3] (second BMC column (body share)). Moreover, the “Fat (relative data)” value in experiment [3] (first Fat column (mass)) is −18.59%; in experiment [3] (second Fat column (body share)) it was −13.43%. Also, the “Lean (relative data)” value is on record as 2.06% in experiment [3] (first Lean column (mass)) and 9.61% in experiment [3] (setting [6]). Further, the food intake result in experiment [4] is “ate intermediate amounts, slightly more than the control diet”. Moreover, the average weight result in experiment [5] (10th-12th weeks of phase II, compared with control group) is recorded as “average weight increased above that of the control group”. Also, the weight loss entry in experiment [5] is on record as “lost more weight than the control group for the first 9 weeks of phase II”.
